# Reference: US5380746A, “Bis-(1H-indol-3-YL)-maleinimide derivatives, processes for the preparation thereof and pharmaceutical compositions containing them” (Goedecke Aktiengesellschaft, priority 1989, dated 1995)
# Assays:
# Format in all cases: biochemical
# protein kinase C = test: enzyme assay of protein kinase C; conditions: read-out: 50% inhibition at a concentration of, enzyme assay of protein kinase C
# A-kinase = A-kinase (Homo sapiens, UniProt P17612); test: inhibition of the A-kinase; conditions: read-out: IC values of the inhibition of the A-kinase
# G-kinase = target: T1, G-kinase (Homo sapiens, UniProt Q13976); test: inhibition of the G-kinase; conditions: read-out: IC values of the inhibition of the G-kinase
# T1 sequence (Q13976 1-671): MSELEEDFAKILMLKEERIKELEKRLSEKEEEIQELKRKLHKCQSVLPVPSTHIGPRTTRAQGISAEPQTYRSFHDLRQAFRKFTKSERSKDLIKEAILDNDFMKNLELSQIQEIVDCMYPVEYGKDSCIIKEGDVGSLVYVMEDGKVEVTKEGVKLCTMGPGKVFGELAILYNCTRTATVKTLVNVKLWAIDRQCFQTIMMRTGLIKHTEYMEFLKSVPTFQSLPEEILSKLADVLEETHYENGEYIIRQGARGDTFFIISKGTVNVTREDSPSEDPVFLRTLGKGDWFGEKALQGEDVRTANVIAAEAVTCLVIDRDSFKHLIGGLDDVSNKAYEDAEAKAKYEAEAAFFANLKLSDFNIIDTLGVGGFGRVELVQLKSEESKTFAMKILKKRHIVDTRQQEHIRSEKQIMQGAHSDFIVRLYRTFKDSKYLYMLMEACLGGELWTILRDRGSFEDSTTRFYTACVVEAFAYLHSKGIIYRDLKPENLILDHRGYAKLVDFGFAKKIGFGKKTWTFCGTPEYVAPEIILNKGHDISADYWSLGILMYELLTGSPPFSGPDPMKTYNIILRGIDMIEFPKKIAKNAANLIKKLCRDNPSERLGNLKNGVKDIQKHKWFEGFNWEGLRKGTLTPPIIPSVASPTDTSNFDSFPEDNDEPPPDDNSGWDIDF
# MLC-kinase = test: inhibition of the MLC-kinase; conditions: read-out: IC values of the inhibition of the MLC-kinase
structure (smiles),measurement,setting,value
"Cn1cc(C2=C(c3c[nH]c4ccccc34)C(=O)NC2=O)c2ccccc21 [Example 1, 2-(1H-Indol-3-yl)-3-(1-methyl-1H-indol-3-yl)maleinimide]",IC50,protein kinase C,0.14 µM
same,IC50,A-kinase,77 µM
same,IC50,G-kinase,15 µM
same,IC50,MLC-kinase,4.5 µM
